Results taken from patent US20170273932A1, “LYOPHILIZED COMPOSITIONS CONTAINING A METAP-2 INHIBITOR” (Zafgen, Inc., priority 2014, published 2017).
Converted amounts (≈) assume the structure as drawn.

Legend:
Assay type in all cases: physicochemical
[1] = Particle size of jet milled ZGN-440; conditions: for D10 / D50 / D90: after jet milling
Description: (§1) Jet milling was conducted with ZGN-440 having an initial D90 of 211.9 μm prior to jet milling.
(§2) For FPS5, jet milled ZGN-440 was recovered in greater than 90% yield. […] The particle size generated is suitable for use with a 29-gauge to 31-gauge needle.

[2] = Polymorphic form / crystallinity after suspension, jet milling or microfluidization (XRPD); conditions: for crystallinity and polymorphic form after jet milling: XRPD
Description: The following processes may be used to prepare an appropriate particle size of ZGN-440 (i) microfluidization; (ii) jet milling; (iii) ball milling; and suspension homogenization.
as §1, §2

physchem = experiment: physchem
Text: In some embodiments, the crystalline form of Form A 6-O-(4-dimethylaminoethoxy) cinnamoyl fumagillol, free base has an IR absorption spectrum having at least one or more characteristic peaks at about 2971, 2938, 2817, 2762, 1163, 1103, 832 cm^−1. In this context, the term “about” means that the cm^−1 values can vary, e.g., up to ±5 cm^−1. In certain embodiments, the crystalline form of Form A 6-O-(4-dimethylaminoethoxy)cinnamoyl fumagillol has IR absorption spectrum shown in FIG. 5 of U.S. Pat. No. 8,349,891, U.S. Pat. No. 8,735,447, and WO 2012/064838. In some embodiments, the crystalline form (e.g., Form A) of Form A 6-O-(4-dimethylaminoethoxy)cinnamoyl fumagillol, free base is characterized by a melting point of about 83° C., for example, and characterized by a differential scanning calorimetry profile with an endotherm at about 83.1° C. […] The solubility of Form A in solvent (e.g., an aqueous solution that may include a buffer) with a pH greater or equal to about 8.0 may be less than about 0.2 mg/mL at ca. 20° C.

Storage of Form C = conditions: about three days of storage at either 5° C. or ambient temperature
Text: In other embodiments, Form C of 6-O-(4-dimethylaminoethoxy)cinnamoyl fumagillol, free base has an IR absorption spectrum having characteristic peaks at about at least one of: 831, 894, 1106, 1159, 1249, 1287, 1512, 1602, 1631, and 1707 cm^−1. In this context, the term “about” means that the cm^−1 values can vary, e.g. up to ±5 cm^−1. In certain embodiments, Form C of 6-O-(4-dimethylaminoethoxy)cinnamoyl fumagillol, free base is characterized by the IR absorption spectrum shown in FIG. 15 of U.S. Pat. No. 8,349,891, U.S. Pat. No. 8,735,447, and WO 2012/064838. […] Accordingly, in certain embodiments, the compositions described herein can include Form C and/or Form A derived from Form C.

| D10 [1] | D50 [1] | D90 [1] | Structure (SMILES) | crystallinity and polymorphic form after jet milling [2] | other results |
| --- | --- | --- | --- | --- | --- |
| 1.1 µm | 3 µm | 6.9 µm | CO[C@@H]1[C@H](OC(=O)/C=C/c2ccc(OCCN(C)C)cc2)CC[C@]2(CO2)[C@H]1[C@@]1(C)O[C@@H]1CC=C(C)C [FPS/2] |  |  |
| 1.7 µm | 9.4 µm | 25.1 µm | CO[C@@H]1[C@H](OC(=O)/C=C/c2ccc(OCCN(C)C)cc2)CC[C@]2(CO2)[C@H]1[C@@]1(C)O[C@@H]1CC=C(C)C [NAT] | retained its crystallinity and polymorphic form |  |
|  |  |  | CO[C@@H]1[C@H](OC(=O)/C=C/c2ccc(OCCN(C)C)cc2)CC[C@]2(CO2)[C@H]1[C@@]1(C)O[C@@H]1CC=C(C)C [ZGN-440, 6-O-(4-dimethylaminoethoxy) cinnamoyl fumagillol] | retains its crystallinity and its polymorphic structure | solubility (physchem; 20 °C, organic solvent or mixture): ~25 mg/mL (≈ 50 mM); solubility (physchem; 20 °C, pH 8, aqueous buffer): < 0.2 mg/mL; solubility (physchem; 50 °C, organic solvent or mixture): ~102 mg/mL (≈ 204 mM); polymorphic form ([2]; suspended in different aqueous diluents (e.g., for extended times) or jet milled or microfluidized): no change in the polymorphic form; initial D90 ([1]; prior to jet milling): 211.9 μm |
|  |  |  | CO[C@@H]1[C@H](OC(=O)/C=C/c2ccc(OCCN(C)C)cc2)CC[C@]2(CO2)[C@H]1[C@@]1(C)O[C@@H]1CC=C(C)C [Form C, 6-O-(4-dimethylaminoethoxy) cinnamoyl fumagillol] |  | conversion of crystalline form on storage (Storage of Form C): converts or reverts to Form A |
| 1.2 µm | 6.1 µm | 14.3 µm | CO[C@@H]1[C@H](OC(=O)/C=C/c2ccc(OCCN(C)C)cc2)CC[C@]2(CO2)[C@H]1[C@@]1(C)O[C@@H]1CC=C(C)C [FPS/5] | crystalline and the desired polymorph |  |
| 1.5 µm | 6.5 µm | 13.2 µm | CO[C@@H]1[C@H](OC(=O)/C=C/c2ccc(OCCN(C)C)cc2)CC[C@]2(CO2)[C@H]1[C@@]1(C)O[C@@H]1CC=C(C)C [FPS/4] |  |  |
| 1.1 µm | 2.4 µm | 5.2 µm | CO[C@@H]1[C@H](OC(=O)/C=C/c2ccc(OCCN(C)C)cc2)CC[C@]2(CO2)[C@H]1[C@@]1(C)O[C@@H]1CC=C(C)C [FPS/1] |  |  |
| 1.2 µm | 3.9 µm | 9.5 µm | CO[C@@H]1[C@H](OC(=O)/C=C/c2ccc(OCCN(C)C)cc2)CC[C@]2(CO2)[C@H]1[C@@]1(C)O[C@@H]1CC=C(C)C [FPS/3] |  |  |
